Data as given in US20240368209A1, “GEMCITABINE ANTICANCER DERIVATIVE AND ANTICANCER PHARMACEUTICAL USE” (ASCENTAWITS PHARMACEUTICALS, LTD., priority 2021, published 2024).
Several values for one entry are separate records, joined by “and”; a condition that tells them apart may be missing. Equal values may be shown once. Read-outs that look alike come from different tables or passages of the source.

Columns and labels:
[1] = Metabolic stability in mouse liver microsomes; format: in vitro ADME
Experimental: (§1) Main solutions were prepared according to Table 9 below:
(§2) (II) Two Separate Experiments were Performed • a) With cofactor (NADPH): 25 μL of 10 mM NADPH was added to the culture broth. The final concentration of liver microsomes was 0.5 mg/mL, and the final concentration of NADPH was 1 mM. • b) Without cofactor (NADPH): 25 μL of 100 mM phosphate buffer was added. The final concentration of liver microsomes was 0.5 mg/mL. The mixture was preheated at 37° C. for 10 minutes. (III) 25 μL of […] control compound or test compound solution was added to start the reaction. […] The final concentrations of the test compound and control compound were both 1 μM. The culture broth was cultured in water at 37° C. (IV) Aliquots of 30 μL were collected from the reaction solution at 0.5, 5, 15, 30, and 60 minutes, respectively. 5 volumes of cold acetonitrile and IS (internal standard, containing 100 nM of alprazolam, 200 nM of caffeine, and 100 nM of tolylbutanamide) were added to stop the reaction. […] 100 μL of supernatant was taken and mixed with 100 μL of ultrapure water, equally divided and analyzed with LC-MS/MS.
(§3) All calculations were conducted using Microsoft Excel. The peak area was determined from the extracted ion chromatogram.
(§4) [formula] [formula] [formula] • wherein, QH is the hepatic blood flow (mL/min/kg) in Table 10, and fub is the fraction of drug unbound in plasma, and assumed as 1.

[2] = Plasma stability in rat plasma; conditions: rat, plasma
Experimental: 1 mM working solution of the test compound was prepared in DMSO. 1 mM working solution of propantheline was prepared in acetonitrile. 1 mM working solution of lovastatin (mevinolin) was prepared in DMSO. Propantheline was used as a positive control for human, monkey, dog, and mouse plasma stability tests. Lovastatin was a positive control for rat plasma stability test.
• A. 398 μL of plasma per well was added to the culture plate, and the plate was preheated at 37° C. for 15 minutes. • B. After preincubation, 2 μL of working solution (test solution or control solution) was added to the 398 μL plasma mentioned above, resulting in a final concentration of 5 μM. The final concentration of organic solvents was 0.5%. The test was conducted in duplicate. • C. The reaction sample was incubated at 37° C. • D. 50 μL was extracted from the reaction sample at 0, 15, 30, 60, and 120 minutes, respectively. […] 100 μL of supernatant was taken and transferred to a new plate. The supernatant was diluted with ultrapure water according to the LC-MS signal response and peak shape.
Samples were analyzed with LC-MS/MS. All calculations were conducted using Microsoft Excel. The peak area ratio was determined from the extracted ion chromatogram. • (1) The percentage of the remaining compound at each time point was calculated with the following formula: […]
wherein the slope value k was determined by linear regression of the natural logarithm of the remaining percentage of the parent drug vs. incubation time curve.

H460 cancer cells = test: Inhibition of H460 cancer cells in the presence or absence of AKR1C3 inhibitor AST-3021 (section 2.1); format: cell-based, human; conditions: AST-3021 3 μM, read-out: IC50 (nmol/L) AST-3021 added
Experimental: The experimental scheme was as follows: • 1) H460 cell suspension was added to a 96-well plate with 100 μL per well at a cell density of 2000/well. • 2) Cells were incubated in an incubator of 37° C., 5% CO2 overnight. • 3) Compound treatment
Combined administration: 24 hours after cell plating, 98 μL of growth medium per well was added. 1 μL of AST-3021 was added to each well (final concentration 3 μM), and the plate was shaken gently to ensure even mixing, and then placed into an incubator; after 2 hours, 1 μL of the test compound at different concentrations was added, and the plate was shaken gently to ensure even mixing, and then placed into an incubator of 37° C., 5% CO2.
Administration of the drug alone: 24 hours after cell plating, 99 μL of growth medium per well was added.
In order to further verify that the compound was activated specifically by human AKR1C3 (aldosterone reductase family 1 member C3), the compound was added following the pretreatment of cells with the specific AKR1C3 enzyme inhibitor AST-3021 (3 μM), and the effect of the presence of AST-3021 on the proliferation of H460 cancer cells was tested
IC50 data of inhibitory effect of the compounds gemcitabine and H11 on H460 cancer cells in the presence or absence of the AKR1C3 inhibitor AST-3021 is shown in Table 2 and Table 3.

[3] = Metabolic stability in monkey liver microsomes; format: in vitro ADME
Experimental: as §1, §2, §3, §4

[4] = Plasma stability in mouse plasma; format: in vitro ADME
Experimental: (§5) The final concentration of organic solvents was 0.5%. The test was conducted in duplicate. • C.
(§6) Samples were analyzed with LC-MS/MS. All calculations were conducted using Microsoft Excel.

[5] = Plasma stability in monkey plasma; format: in vitro ADME
Experimental: as §5, §6

CC(C)NP(=O)(OCc1ccc([N+](=O)[O-])c(Oc2ccc(-c3ccc(F)cc3)c(F)c2)c1)OCC1OC(C2N=CC(N)=NC2=O)C(F)(F)C1O (stereo not drawn) [Compound H11]
Hepatic Extraction Ratio (ER) [1]: 0.73 | Predicted Hepatic CLH [1]: 65.90 mL/min/kg | clearance and stability in liver microsomes (in words) [1]: medium clearances and certain stability | Remaining percentage (%) ([1]; NADPH added, 0.5 minutes, 1 μM): 100.00% | Remaining percentage (%) ([1]; NADPH added, 5 minutes): 85.55% | Remaining percentage (%) ([1]; NADPH added, 15 minutes): 55.03% | Remaining percentage (%) ([1]; NADPH added, 30 minutes): 36.05% | Remaining percentage (%) ([1]; NADPH added, 60 minutes): 16.85% | Remaining percentage (%) ([1]; NADPH not added, 0.5 minutes): 100.00% | Remaining percentage (%) ([1]; NADPH not added, 60 minutes): 93.32% | half-life at 1 μM ([1]; read-out: In vitro half-life t1/2): 23.3 min | microsomal CLint at 1 μM ([1]; read-out: In vitro intrinsic clearance CLint): 59.5 µL/min/mg | CLint scaled at 1 μM ([1]; read-out: Scale-up CLint): 246 mL/min/kg | t1/2 (min) [2]: ∞ | Remaining percentage (%) ([2]; 0 h, 5 μM): 100.00% | Remaining percentage (%) ([2]; 0.25 h, 5 µM): 108.59% | Remaining percentage (%) ([2]; 0.5 h, 5 µM): 105.39% | Remaining percentage (%) ([2]; 1 h, 5 µM): 100.74% | Remaining percentage (%) ([2]; 2 h, 5 µM): 109.53% | IC50 (H460 cancer cells; H460): 1470 nmol/L and 2350 nmol/L | IC50 (H460 cancer cells; Homo sapiens, NCI-H460, H460): 2940 nmol/L | Hepatic Extraction Ratio (ER) [3]: 0.88 | Predicted Hepatic CLH [3]: 38.81 mL/min/kg | clearance and stability in liver microsomes (in words) [3]: high clearance and poor stability | Remaining percentage (%) ([3]; NADPH added, 0.5 minutes, 1 μM): 100.00% | Remaining percentage (%) ([3]; NADPH added, 5 minutes): 46.01% | Remaining percentage (%) ([3]; NADPH added, 15 minutes): 13.27% | Remaining percentage (%) ([3]; NADPH added, 30 minutes): 0.59% | Remaining percentage (%) ([3]; NADPH added, 60 minutes): 0.09% | Remaining percentage (%) ([3]; NADPH not added, 0.5 minutes): 100.00% | Remaining percentage (%) ([3]; NADPH not added, 60 minutes): 105.87% | half-life at 1 μM ([3]; monkey, read-out: In vitro half-life t1/2): 5.06 min | microsomal CLint at 1 μM ([3]; monkey, read-out: In vitro intrinsic clearance CLint): 275 µL/min/mg | CLint scaled at 1 μM ([3]; monkey, read-out: Scale-up CLint): 330 mL/min/kg | t1/2 (min) [4]: ∞ | Remaining percentage (%) ([4]; 0 min, 5 μM, 37° C.): 100.00% | plasma stability (in words) ([4]; 37° C., at least 2 hours): stable and has no significant metabolism | Remaining percentage (%) ([4]; 15 min): 102.19% | Remaining percentage (%) ([4]; 30 min): 96.83% | Remaining percentage (%) ([4]; 60 min): 104.70% | Remaining percentage (%) ([4]; 120 min): 97.53% | t1/2 (min) [5]: ∞ | Remaining percentage (%) ([5]; 0 min, 5 μM, 37° C.): 100.00% | plasma stability (in words) ([5]; 37° C., at least 2 hours): stable and has no significant metabolism | Remaining percentage (%) ([5]; 15 min): 100.61% | Remaining percentage (%) ([5]; 30 min): 92.99% | Remaining percentage (%) ([5]; 60 min): 103.66% | Remaining percentage (%) ([5]; 120 min): 98.48%
